Data published in the NIST ThermoML archive (doi:10.1021/acs.jced.7b00020).
Numbers after ± are expanded uncertainties.

Assay: wn = mass fraction of the nth substance listed
Details: 100 kPa, Liquid, Pycnometric method

Question: Which results are given for O=P([O-])(O)O.[K+] [monopotassium phosphate] + O?
Answer: mass density (288.15 K, w1 = 0.1686): 1126.4 ± 2.6 kg/m3; mass density (318.15 K, w1 = 0.2685): 1204.6 ± 2.8 kg/m3

Question: With O=P([O-])(O)O.[Na+] [sodium dihydrogen phosphate] + O as the molecule, how does the mass density (288.15 K, w1 = 0.436) read?
Answer: Its mass density is 1388.4 ± 3.4 kg/m3.

Question: And the mass density (318.15 K, w1 = 0.5992)?
Answer: Its mass density is 1573.3 ± 3.8 kg/m3.
